Data on three compounds can be found in US11766415B2, “Reducing triglyceride levels and cortisol levels with pharmaceutical preparations” (GLYKON TECHNOLOGIES GROUP, LLC, priority 2020, dated 2023).

In data set [1] the test system is intestinal alpha-glucosidase. Conditions: background statement; in vitro; cited from earlier work.
Another data set deals with T1, pancreatic alpha-amylase (Homo sapiens, UniProt P04746).
T1 sequence (P04746 16-511): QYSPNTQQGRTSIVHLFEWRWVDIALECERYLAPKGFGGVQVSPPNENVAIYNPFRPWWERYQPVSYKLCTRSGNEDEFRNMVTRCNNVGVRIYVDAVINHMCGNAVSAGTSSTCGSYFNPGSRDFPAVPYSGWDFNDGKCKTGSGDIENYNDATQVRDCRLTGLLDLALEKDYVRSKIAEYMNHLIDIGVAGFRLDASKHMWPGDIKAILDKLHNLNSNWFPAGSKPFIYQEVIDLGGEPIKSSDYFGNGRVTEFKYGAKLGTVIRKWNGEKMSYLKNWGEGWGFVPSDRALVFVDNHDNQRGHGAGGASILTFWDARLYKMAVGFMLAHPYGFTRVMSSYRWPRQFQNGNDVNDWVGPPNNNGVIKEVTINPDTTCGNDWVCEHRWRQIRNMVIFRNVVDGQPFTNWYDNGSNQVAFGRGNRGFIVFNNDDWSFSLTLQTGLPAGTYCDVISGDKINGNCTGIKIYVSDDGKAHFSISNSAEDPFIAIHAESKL
The settings on record: background statement; in vitro; cited from earlier work.

Another data set has as its target T2, ATP citrate lyase (Homo sapiens, UniProt P53396).
T2 sequence (P53396 1-1101): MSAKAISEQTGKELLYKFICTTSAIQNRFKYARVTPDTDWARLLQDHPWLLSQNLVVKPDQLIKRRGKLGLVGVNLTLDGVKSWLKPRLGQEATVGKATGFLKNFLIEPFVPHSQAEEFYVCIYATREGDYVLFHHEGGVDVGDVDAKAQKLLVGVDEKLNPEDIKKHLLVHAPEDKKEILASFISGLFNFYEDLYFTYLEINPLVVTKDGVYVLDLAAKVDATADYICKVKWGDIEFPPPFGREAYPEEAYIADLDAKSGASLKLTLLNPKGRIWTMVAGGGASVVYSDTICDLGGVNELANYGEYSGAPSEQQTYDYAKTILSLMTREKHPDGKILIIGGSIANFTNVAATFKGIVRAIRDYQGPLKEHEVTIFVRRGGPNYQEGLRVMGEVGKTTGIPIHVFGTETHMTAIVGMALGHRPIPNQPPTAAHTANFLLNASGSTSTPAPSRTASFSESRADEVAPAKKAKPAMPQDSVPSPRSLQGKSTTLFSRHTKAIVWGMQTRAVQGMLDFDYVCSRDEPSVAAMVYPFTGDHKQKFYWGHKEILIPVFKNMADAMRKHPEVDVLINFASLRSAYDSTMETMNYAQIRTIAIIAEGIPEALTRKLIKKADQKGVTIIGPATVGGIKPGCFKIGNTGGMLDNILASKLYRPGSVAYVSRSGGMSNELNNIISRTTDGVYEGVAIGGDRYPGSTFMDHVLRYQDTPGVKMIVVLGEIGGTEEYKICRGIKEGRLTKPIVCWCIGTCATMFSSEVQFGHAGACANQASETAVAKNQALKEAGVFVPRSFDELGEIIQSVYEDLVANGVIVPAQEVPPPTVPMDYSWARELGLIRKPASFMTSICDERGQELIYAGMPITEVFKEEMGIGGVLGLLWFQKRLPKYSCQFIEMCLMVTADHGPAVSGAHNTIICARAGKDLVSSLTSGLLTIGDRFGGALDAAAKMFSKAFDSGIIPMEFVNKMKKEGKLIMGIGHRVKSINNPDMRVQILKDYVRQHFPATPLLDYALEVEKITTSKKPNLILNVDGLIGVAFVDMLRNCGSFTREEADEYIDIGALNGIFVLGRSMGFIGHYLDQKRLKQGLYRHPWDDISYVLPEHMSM
The settings on record: background statement; cited from earlier work.

In the next data set the test system is blood sugar. In words: Blood sugar levels after HCA administration. The settings on record: conclusion, summary; in some cases only transient. The class given is in vivo, human. How it is done:
Subject 5 was a person, weighing approximately 285 pounds and with a […] fasting blood sugar level of 115-120. First, blood was drawn from Subject 5 and levels of various biomolecules were measured. Next, Subject 5 was administered 16.66 ml of the Example 1 formulation on an empty stomach, i.e. wherein with each 16.66 ml the subject received 5,000 mg of the potassium-magnesium (−)-hydroxycitric acid salt, corresponding to 3490 mg of (−)-hydroxycitric acid. 90 minutes after the administration, blood was drawn from Subject 5 and levels of the various biomolecules were remeasured. […] It is hypothesized that this transient elevation is due to Randall's Cycle. […] In support of this explanation, it is noted that this subject had previously used HCA formulations with the result of keeping their otherwise elevated fasting blood glucose levels in the low- to mid-90s with consistent usage.

Another data set concerns Ketones. In words: Blood ketones before and 90 minutes after administration. The data set is classed as in vivo, human. How it is done:
(§1) Subject 5 was a person, weighing approximately 285 pounds and with a normal fasting blood sugar level of 115-120. First, blood was drawn from Subject 5 and levels of various biomolecules were measured. Next, Subject 5 was administered 16.66 ml of the Example 1 formulation on an empty stomach, i.e. wherein with each 16.66 ml the subject received 5,000 mg of the potassium-magnesium (−)-hydroxycitric acid salt, corresponding to 3490 mg of (−)-hydroxycitric acid. 90 minutes after the administration, blood was drawn from Subject 5 and levels of the various biomolecules were remeasured.

A further data set concerns Triglycerides. Description: Blood triglycerides before and 90 minutes after administration. The data set is classed as in vivo, human. How it is done: as §1
(§2) Subject 6 was administered 16.66 ml of the Example 1 formulation on an empty stomach, i.e. wherein with each 16.66 ml the subject received 5,000 mg of the potassium-magnesium (−)-hydroxycitric acid salt, corresponding to 3490 mg of (−)-hydroxycitric acid. 90 minutes after the administration, blood was drawn from Subject 6 and levels of the various biomolecules were remeasured.

The subject of data set [2] is blood hemoglobin and oxygen saturation. In words: fNIRS measurement of blood hemoglobin and oxygen saturation after oral administration. Conditions: conclusion, summary over subjects. The data set is classed as in vivo, human. Here is the method:
Subjects 1-4 were orally administered the formulation of Example 1. The Subjects were given either one or two administrations of 8.33 ml of the aqueous formulation of Example 1 on an empty stomach, i.e. wherein with each 8.33 ml the subject received 2,500 mg of the potassium-magnesium (−)-hydroxycitric acid salt, corresponding to 1745 mg of (−)-hydroxycitric acid.
fNIRS testing (functional Near Infrared Spectroscopy) was used to measure blood hemoglobin and oxygen saturation. fNIRS can be used to determine real-time peripheral and cerebral hemodynamic responses. For example, relative changes in HbR (deoxygen saturation), HbO (oxygen saturation), and HbT (total hemoglobin concentration), etc. can be determined via application of Modified Beer Lambert Law. HbR, Hb=deoxygen saturation (shown as the thinnest and bottom dashed line in FIG. 1) HbO, HbO2=oxygen saturation (shown as the medium-thickness and middle line in FIG. 1) HbT=total hemoglobin concentration (shown as the darkest, thickest and top line in FIG. 1). On the graphs, time is in seconds.

The subject of the next data set is Cortisol. In words: Blood cortisol before and 90 minutes after administration. The class given is in vivo, human. Here is the method:
as §1, §2

Setting [3] is: conclusion, summary over subjects.
Where [4] appears, read: a subject (Example 3), 5,000 mg salt (3,490 mg (−)-hydroxycitric acid), 90 minutes later.

With `O=C(O)C[C@](O)(C(=O)O)[C@H](O)C(=O)O` [(2S,3R)-HCA], the “inhibition of intestinal alpha-glucosidase” value in data set [1] was “inhibits”. Further, the “inhibition of pancreatic alpha-amylase” value at pancreatic alpha-amylase was “inhibits”.

On to `O=C(O)CC(O)(C(=O)O)C(O)C(=O)O` (stereo not drawn) [HCA, 1,2-dihydroxypropane-1,2,3-tricarboxylic acid], for which the “inhibition of ATP citrate lyase” value on ATP citrate lyase was “competitive inhibitor”. For the same compound, in the data set with blood sugar, the glucose entry was “increased”. Further, in the data set with Ketones (Subject 5, 5,000 mg salt, empty stomach, 90 mins after administration, before 0.6), the “Ketones Result” value was 0.5. For the same compound, in the data set on Ketones (conclusion, summary), the levels of ketones entry is recorded as “relatively stable or slightly lower”. The triglycerides result with Triglycerides (setting [3]) was “decreased”. Further, in data set [2], the blood hemoglobin result is reported as “increased” and the oxygen saturation entry is “increased”. Also, in the data set on Cortisol (setting [3]), the cortisol result was “decreased”.

As for “potassium-magnesium salt of (−)-hydroxycitric acid”, the “decrease in triglyceride level” value with Triglycerides (setting [4]) came out at 67%. Also, the “decrease in cortisol level” value in the data set on Cortisol (setting [4]) is 20%.
